{"source": "patent EP2929883A1", "about": "“Pyrazole derivatives as dihydroorotate dehydrogenase (DHODH) inhibitors” (INSTITUT PASTEUR, priority 2014, dated 2015)"}
{"system": "measles virus", "assay": "microbe, parasite or virus in culture", "settings": "Measles morbillivirus, 24 h", "units": {"MIC50": "µM"}}
{"smiles": "CCOc1nn(-c2ccccn2)c(C)c1-c1ccc(OC)cc1", "note": "[example 160, 2-(3-ethoxy-4-(4-methoxyphenyl)-5-methyl-1H-pyrazol-1-yl)pyridine]", "MIC50": "> 5"}
{"smiles": "CCOc1nn(-c2ncc(CC)cn2)c(C)c1-c1ccc(OC)cc1", "note": "[example 161, 2-(3-ethoxy-4-(4-methoxyphenyl)-5-methyl-1H-pyrazol-1-yl)-5-ethylpyrimidine]", "MIC50": "0.5 to 5"}
{"smiles": "CCOc1nn(-c2ccc(C3CC3)cn2)c(C)c1-c1ccccc1", "note": "[example 161A, 5-cyclopropyl-2-(3-ethoxy-5-methyl-4-phenyl-1H-pyrazol-1-yl)pyridine]", "MIC50": "0.5 to 5"}
{"smiles": "CCOc1nn(-c2ccccn2)c(C)c1Cc1ccccc1Cl", "note": "[example 162, 2-(4-(2-chlorobenzyl)-3-ethoxy-5-methyl-1H-pyrazol-1-yl)pyridine]", "MIC50": "> 5"}
{"smiles": "CCOc1nn(-c2ccccn2)c(C)c1Cc1cccc(Cl)c1", "note": "[example 163, 2-(4-(3-chlorobenzyl)-3-ethoxy-5-methyl-1H-pyrazol-1-yl)pyridine]", "MIC50": "> 5"}
{"smiles": "CCOc1nn(-c2ccc(OC)cc2)cc1Cc1ccccc1", "note": "[example 164, 4-benzyl-3-ethoxy-1-(4-methoxyphenyl)-1H-pyrazole]", "MIC50": "> 5"}
{"smiles": "Cc1c(Cc2ccccc2)c(OC(C)C)nn1-c1ccccn1", "note": "[example 165, 2-(4-benzyl-3-isopropoxy-5-methyl-1H-pyrazol-1-yl)pyridine]", "MIC50": "> 5"}
{"smiles": "CCOc1ccn(-c2ncc(CC)cn2)n1", "note": "[example 166, 2-(3-ethoxy-1H-pyrazol-1-yl)-5-ethylpyrimidine]", "MIC50": "0.5 to 5"}
{"smiles": "CCOc1nn(-c2ncc(CC)c(Cc3ccccc3)n2)cc1I", "note": "[example 167, 4-benzyl-2-(3-ethoxy-4-iodo-1H-pyrazol-1-yl)-5-ethylpyrimidine]", "MIC50": "0.5 to 5"}
{"smiles": "COCc1c(Cc2ccccc2)c(OC(C)C)nn1-c1ncc(C2CC2)cn1", "note": "[example 168, 2-(4-benzyl-3-isopropoxy-5-(methoxymethyl)-1H-pyrazol-1-yl)-5-cyclopropylpyrimidine]", "MIC50": "0.05 to 0.5"}
{"smiles": "CCN(CC)Cc1c(Cc2ccccc2)c(OC(C)C)nn1-c1ncc(C2CC2)cn1", "note": "[example 169, N-((4-benzyl-1-(5-cyclopropylpyrimidin-2-yl)-3-isopropoxy-1H-pyrazol-5-yl)methyl)-N-ethylethanamine]", "MIC50": "> 5"}
{"smiles": "CCOc1nn(-c2ccc(C(C)C)cn2)c(C)c1Cc1ccccc1", "note": "[example 170, 2-(4-benzyl-3-ethoxy-5-methyl-1H-pyrazol-1-yl)-5-isopropylpyridine]", "MIC50": "0.5 to 5"}
{"smiles": "CCOc1nn(-c2ncc(C)cn2)c(C)c1Cc1ccccc1", "note": "[example 171, 2-(4-benzyl-3-ethoxy-5-methyl-1H-pyrazol-1-yl)-5-methylpyrimidine]", "MIC50": "0.0005 to 0.05"}
{"smiles": "CCOc1nn(-c2ccc(C3CC3)cn2)c(C)c1Cc1ccccc1", "note": "[example 172, 2-(4-benzyl-3-ethoxy-5-methyl-1H-pyrazol-1-yl)-5-cyclopropylpyridine]", "MIC50": "0.05 to 0.5"}
{"smiles": "COc1cnc(-n2nc(OC(C)C)c(Oc3c(F)cccc3F)c2C)cn1", "note": "[example 173, 2-(4-(2,6-difluorophenoxy)-3-isopropoxy-5-methyl-1H-pyrazol-1-yl)-5-methoxypyrazine]", "MIC50": "0.5 to 5"}
{"smiles": "COc1ccc(-n2nc(OC(C)C)c(Oc3c(F)cccc3F)c2C)nn1", "note": "[example 174, 3-(4-(2,6-difluorophenoxy)-3-isopropoxy-5-methyl-1H-pyrazol-1-yl)-6-methoxypyridazine]", "MIC50": "0.05 to 0.5"}
{"smiles": "CCOc1ccc(-n2nc(OC(C)C)c(Oc3c(F)cccc3F)c2C)nn1", "note": "[example 174A, 3-(4-(2,6-difluorophenoxy)-3-isopropoxy-5-methyl-1H-pyrazol-1-yl)-6-ethoxypyridazine]", "MIC50": "0.05 to 0.5"}
{"smiles": "CCOc1nn(-c2ncc(CC)c(C)n2)c(C)c1Cc1ccccc1", "note": "[example 175, 2-(4-benzyl-3-ethoxy-5-methyl-1H-pyrazol-1-yl)-5-ethyl-4-methylpyrimidine]", "MIC50": "0.0005 to 0.05"}
{"smiles": "CCOc1nn(-c2ccc(C3CC3)cn2)c(C)c1C(O)c1ccccc1", "note": "(stereo not shown) [example 177, (1-(5-cyclopropylpyridin-2-yl)-3-ethoxy-5-methyl-1H-pyrazol-4-yl)(phenyl)methanol]", "MIC50": "0.0005 to 0.05"}
